# Reference: patent US20100099561A1, “HETEROBICYCLIC ALKYLTHIO-BRIDGED ISOXAZOLINES” (E.I. DU PONT DE NEMOURS AND COMPANY, priority 2008, published 2010)
# Legend:
# Type in all cases: in vivo
# [1] = tested on: umbrella sedge (Cyperus difformis); assay: Test B flooded paddy test, umbrella sedge; details: Flood, scale 0 to 100
# Outline: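 Step one: raise plants to 2 leaves. Step two: flood pots 3 cm over the soil and apply compound into the water, keeping this depth. Step three: after 13–15 greenhouse days, score visually versus controls, 0–100, where 100 means complete control.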
# [2] = tested on: large crabgrass (Digitaria sanguinalis); assay: Test B preemergence, large crabgrass; details: scale 0 to 100
# From the text: (§1) Seeds of plant species selected from blackgrass (Alopecurus myosuroides), downy bromegrass (Bromus tectorum), green foxtail (Setaria viridis), Italian ryegrass (Lolium multiflorum), wheat (Triticum aestivum), wild oat (Avena fatua), catchweed bedstraw (Galium aparine), bermudagrass (Cynodon dactylon), Surinam grass (Brachiaria decumbens), cocklebur (Xanthium strumarium), corn (Zea mays), large crabgrass (Digitaria sanguinalis), woolly cupgrass (Eriochloa villosa), giant foxtail (Setaria faberii), goosegrass (Eleusine indica), johnsongrass (Sorghum halepense), kochia (Kochia scoparia), lambsquarters (Chenopodium album), morningglory (Ipomoea coccinea), nightshade (eastern black nightshade, Solanum ptycanthum), yellow nutsedge (Cyperus esculentus), pigweed (Amaranthus retroflexus), ragweed (common ragweed, Ambrosia elatior), soybean (Glycine max), sunflower (common oilseed sunflower, Helianthus annuus), Russian thistle (Salsola kali), and velvetleaf (Abutilon theophrasti) were planted into a blend of loam soil and sand and treated preemergence with test compounds formulated in a non-phytotoxic solvent mixture which included a surfactant. Treated plants and controls were maintained in a greenhouse for 13 to 15 days, after which time all species were compared to controls and visually evaluated. Plant response ratings, summarized in Table B, are based on a scale of 0 to 100 where 0 is no effect and 100 is complete control. A dash (-) response means no test result.
# [3] = tested on: bermudagrass (Cynodon dactylon); assay: Test B preemergence, bermudagrass; details: scale 0 to 100
# From the text: as §1
# [4] = tested on: pigweed (Amaranthus retroflexus); assay: Test A preemergence, pigweed; details: 0 to 100 scale (0 no effect, 100 complete control)
# Outline: (§2)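 Visual injury rating, 0 = no effect to 100 = complete control, made roughly ten days after treatment by comparison with untreated controls. Preemergence: directed soil spray onto freshly planted loam/sand. Postemergence: foliar application at one- to two-leaf stage, 2–10 cm height.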
# [5] = tested on: morningglory (Ipomoea coccinea); assay: Test B preemergence, morningglory; details: scale 0 to 100
# From the text: as §1
# [6] = tested on: blackgrass (Alopecurus myosuroides); assay: Test B preemergence, blackgrass; details: scale 0 to 100
# From the text: as §1
# [7] = tested on: yellow nutsedge (Cyperus esculentus); assay: Test B preemergence, yellow nutsedge; details: scale 0 to 100
# From the text: as §1
# [8] = tested on: catchweed bedstraw (Galium aparine); assay: Test B preemergence, catchweed bedstraw; details: scale 0 to 100
# From the text: as §1
# [9] = tested on: wheat (Triticum aestivum); assay: Test A postemergence, wheat; details: 0 to 100 scale (0 no effect, 100 complete control)
# Outline: as §2
# [10] = tested on: nightshade (eastern black nightshade, Solanum ptycanthum); assay: Test B preemergence, nightshade; details: scale 0 to 100
# From the text: as §1
# [11] = tested on: giant foxtail (Setaria faberii); assay: Test B preemergence, giant foxtail; details: scale 0 to 100
# From the text: as §1
# corn (Zea mays) [12] = assay: Test A postemergence, corn; details: 0 to 100 scale (0 no effect, 100 complete control)
# Outline: as §2
# [13] = tested on: woolly cupgrass (Eriochloa villosa); assay: Test B preemergence, woolly cupgrass; details: scale 0 to 100
# From the text: as §1
# [14] = tested on: johnsongrass (Sorghum halepense); assay: Test B preemergence, johnsongrass; details: scale 0 to 100
# From the text: as §1
# wild oat (Avena fatua) = assay: Test B preemergence, wild oat; details: scale 0 to 100
# From the text: as §1
# [15] = tested on: barnyardgrass (Echinochloa crus-galli); assay: Test A postemergence, barnyardgrass; details: 0 to 100 scale (0 no effect, 100 complete control)
# Outline: as §2
# corn (Zea mays) [16] = assay: Test B preemergence, corn; details: scale 0 to 100
# From the text: as §1
# [17] = tested on: green foxtail (Setaria viridis); assay: Test B preemergence, green foxtail; details: scale 0 to 100
# From the text: as §1
# [18] = tested on: velvetleaf (Abutilon theophrasti); assay: Test A preemergence, velvetleaf; details: 0 to 100 scale (0 no effect, 100 complete control)
# Outline: as §2
structure (smiles),measurement,setting,value
"CC1(C)CC(S(=O)(=O)Cc2c(C(F)(F)F)nc3n(c2=O)CCCC3)=NO1 [Compound 8, 3-[[(4,5-dihydro-5,5-dimethyl-3-isoxazolyl)sulfonyl]methyl]-6,7,8,9-tetrahydro-2-(trifluoromethyl)-4H-pyrido[1,2-α]pyrimidin-4-one]","Plant response rating, Sedge, Umbrella",[1]; 62 g ai/ha,0
same,"Plant response rating, Sedge, Umbrella",[1]; 250 g ai/ha,20
same,"Plant response rating, Crabgrass, Large",[2]; 16 g ai/ha,95
same,"Plant response rating, Crabgrass, Large",[2]; 31 g ai/ha,95
same,"Plant response rating, Crabgrass, Large",[2]; 62 g ai/ha,100
same,"Plant response rating, Crabgrass, Large",[2]; 125 g ai/ha,100
same,"Plant response rating, Bermudagrass",[3]; 16 g ai/ha,100
same,"Plant response rating, Bermudagrass",[3]; 31 g ai/ha,100
same,"Plant response rating, Bermudagrass",[3]; 62 g ai/ha,100
same,"Plant response rating, Bermudagrass",[3]; 125 g ai/ha,100
same,"Plant response rating, Pigweed",[4]; 125 g ai/ha,30
same,"Plant response rating, Pigweed",[4]; 500 g ai/ha,100
same,"Plant response rating, Morningglory",[5]; 16 g ai/ha,0
same,"Plant response rating, Morningglory",[5]; 31 g ai/ha,0
same,"Plant response rating, Morningglory",[5]; 62 g ai/ha,20
same,"Plant response rating, Morningglory",[5]; 125 g ai/ha,80
same,"Plant response rating, Blackgrass",[6]; 16 g ai/ha,0
same,"Plant response rating, Blackgrass",[6]; 31 g ai/ha,90
same,"Plant response rating, Blackgrass",[6]; 62 g ai/ha,90
same,"Plant response rating, Blackgrass",[6]; 125 g ai/ha,100
same,"Plant response rating, Nutsedge, Yellow",[7]; 16 g ai/ha,0
same,"Plant response rating, Nutsedge, Yellow",[7]; 31 g ai/ha,20
same,"Plant response rating, Nutsedge, Yellow",[7]; 62 g ai/ha,60
same,"Plant response rating, Nutsedge, Yellow",[7]; 125 g ai/ha,80
same,"Plant response rating, Galium",[8]; 16 g ai/ha,0
same,"Plant response rating, Galium",[8]; 31 g ai/ha,0
same,"Plant response rating, Galium",[8]; 62 g ai/ha,100
same,"Plant response rating, Galium",[8]; 125 g ai/ha,100
same,"Plant response rating, Wheat",[9]; 125 g ai/ha,20
same,"Plant response rating, Wheat",[9]; 500 g ai/ha,60
same,"Plant response rating, Nightshade",[10]; 16 g ai/ha,0
same,"Plant response rating, Nightshade",[10]; 31 g ai/ha,65
same,"Plant response rating, Nightshade",[10]; 62 g ai/ha,75
same,"Plant response rating, Nightshade",[10]; 125 g ai/ha,98
same,"Plant response rating, Foxtail, Giant",[11]; 16 g ai/ha,80
same,"Plant response rating, Foxtail, Giant",[11]; 31 g ai/ha,90
same,"Plant response rating, Foxtail, Giant",[11]; 62 g ai/ha,98
same,"Plant response rating, Foxtail, Giant",[11]; 125 g ai/ha,100
same,"Plant response rating, Corn",corn (Zea mays) [12]; 125 g ai/ha,0
same,"Plant response rating, Corn",corn (Zea mays) [12]; 500 g ai/ha,60
same,"Plant response rating, Cupgrass, Woolly",[13]; 16 g ai/ha,85
same,"Plant response rating, Cupgrass, Woolly",[13]; 31 g ai/ha,95
same,"Plant response rating, Cupgrass, Woolly",[13]; 62 g ai/ha,95
same,"Plant response rating, Cupgrass, Woolly",[13]; 125 g ai/ha,100
same,"Plant response rating, Johnsongrass",[14]; 16 g ai/ha,75
same,"Plant response rating, Johnsongrass",[14]; 31 g ai/ha,90
same,"Plant response rating, Johnsongrass",[14]; 62 g ai/ha,100
same,"Plant response rating, Johnsongrass",[14]; 125 g ai/ha,100
same,"Plant response rating, Oat, Wild",wild oat (Avena fatua); 16 g ai/ha,0
same,"Plant response rating, Oat, Wild",wild oat (Avena fatua); 31 g ai/ha,0
same,"Plant response rating, Oat, Wild",wild oat (Avena fatua); 62 g ai/ha,35
same,"Plant response rating, Oat, Wild",wild oat (Avena fatua); 125 g ai/ha,90
same,"Plant response rating, Barnyardgrass",[15]; 125 g ai/ha,80
same,"Plant response rating, Barnyardgrass",[15]; 500 g ai/ha,90
same,"Plant response rating, Corn",corn (Zea mays) [16]; 16 g ai/ha,10
same,"Plant response rating, Corn",corn (Zea mays) [16]; 31 g ai/ha,15
same,"Plant response rating, Corn",corn (Zea mays) [16]; 62 g ai/ha,45
same,"Plant response rating, Corn",corn (Zea mays) [16]; 125 g ai/ha,55
same,"Plant response rating, Foxtail, Green",[17]; 16 g ai/ha,70
same,"Plant response rating, Foxtail, Green",[17]; 31 g ai/ha,85
same,"Plant response rating, Foxtail, Green",[17]; 62 g ai/ha,98
same,"Plant response rating, Foxtail, Green",[17]; 125 g ai/ha,98
same,"Plant response rating, Velvetleaf",[18]; 125 g ai/ha,20
same,"Plant response rating, Velvetleaf",[18]; 500 g ai/ha,90
CC1(C)CC(S(=O)(=O)Cc2c(C(F)(F)C(F)(F)F)nc3n(c2=O)CCC3)=NO1 [Compound 22],"Plant response rating, Sedge, Umbrella",[1]; 62 g ai/ha,0
same,"Plant response rating, Sedge, Umbrella",[1]; 250 g ai/ha,0
same,"Plant response rating, Crabgrass, Large",[2]; 16 g ai/ha,85
same,"Plant response rating, Crabgrass, Large",[2]; 31 g ai/ha,90
same,"Plant response rating, Crabgrass, Large",[2]; 62 g ai/ha,98
same,"Plant response rating, Crabgrass, Large",[2]; 125 g ai/ha,100
same,"Plant response rating, Bermudagrass",[3]; 16 g ai/ha,98
same,"Plant response rating, Bermudagrass",[3]; 31 g ai/ha,100
same,"Plant response rating, Bermudagrass",[3]; 62 g ai/ha,100
same,"Plant response rating, Bermudagrass",[3]; 125 g ai/ha,100
same,"Plant response rating, Pigweed",[4]; 125 g ai/ha,10
same,"Plant response rating, Pigweed",[4]; 500 g ai/ha,90
same,"Plant response rating, Morningglory",[5]; 16 g ai/ha,0
same,"Plant response rating, Morningglory",[5]; 31 g ai/ha,0
same,"Plant response rating, Morningglory",[5]; 62 g ai/ha,70
same,"Plant response rating, Morningglory",[5]; 125 g ai/ha,100
same,"Plant response rating, Blackgrass",[6]; 16 g ai/ha,0
same,"Plant response rating, Blackgrass",[6]; 31 g ai/ha,40
same,"Plant response rating, Blackgrass",[6]; 62 g ai/ha,40
same,"Plant response rating, Blackgrass",[6]; 125 g ai/ha,98
same,"Plant response rating, Nutsedge, Yellow",[7]; 16 g ai/ha,0
same,"Plant response rating, Nutsedge, Yellow",[7]; 31 g ai/ha,10
same,"Plant response rating, Nutsedge, Yellow",[7]; 62 g ai/ha,60
same,"Plant response rating, Nutsedge, Yellow",[7]; 125 g ai/ha,80
same,"Plant response rating, Galium",[8]; 16 g ai/ha,0
same,"Plant response rating, Galium",[8]; 31 g ai/ha,0
same,"Plant response rating, Galium",[8]; 62 g ai/ha,0
same,"Plant response rating, Galium",[8]; 125 g ai/ha,0
same,"Plant response rating, Wheat",[9]; 125 g ai/ha,20
same,"Plant response rating, Wheat",[9]; 500 g ai/ha,50
same,"Plant response rating, Nightshade",[10]; 16 g ai/ha,0
same,"Plant response rating, Nightshade",[10]; 31 g ai/ha,60
same,"Plant response rating, Nightshade",[10]; 62 g ai/ha,90
same,"Plant response rating, Nightshade",[10]; 125 g ai/ha,100
same,"Plant response rating, Foxtail, Giant",[11]; 16 g ai/ha,50
same,"Plant response rating, Foxtail, Giant",[11]; 31 g ai/ha,50
same,"Plant response rating, Foxtail, Giant",[11]; 62 g ai/ha,90
same,"Plant response rating, Foxtail, Giant",[11]; 125 g ai/ha,100
same,"Plant response rating, Corn",corn (Zea mays) [12]; 125 g ai/ha,0
same,"Plant response rating, Corn",corn (Zea mays) [12]; 500 g ai/ha,0
same,"Plant response rating, Cupgrass, Woolly",[13]; 16 g ai/ha,100
same,"Plant response rating, Cupgrass, Woolly",[13]; 31 g ai/ha,100
same,"Plant response rating, Cupgrass, Woolly",[13]; 62 g ai/ha,100
same,"Plant response rating, Cupgrass, Woolly",[13]; 125 g ai/ha,100
same,"Plant response rating, Johnsongrass",[14]; 16 g ai/ha,0
same,"Plant response rating, Johnsongrass",[14]; 31 g ai/ha,10
same,"Plant response rating, Johnsongrass",[14]; 62 g ai/ha,65
same,"Plant response rating, Johnsongrass",[14]; 125 g ai/ha,98
same,"Plant response rating, Oat, Wild",wild oat (Avena fatua); 16 g ai/ha,0
same,"Plant response rating, Oat, Wild",wild oat (Avena fatua); 31 g ai/ha,0
same,"Plant response rating, Oat, Wild",wild oat (Avena fatua); 62 g ai/ha,30
same,"Plant response rating, Oat, Wild",wild oat (Avena fatua); 125 g ai/ha,40
same,"Plant response rating, Barnyardgrass",[15]; 125 g ai/ha,70
same,"Plant response rating, Barnyardgrass",[15]; 500 g ai/ha,80
same,"Plant response rating, Corn",corn (Zea mays) [16]; 16 g ai/ha,0
same,"Plant response rating, Corn",corn (Zea mays) [16]; 31 g ai/ha,0
same,"Plant response rating, Corn",corn (Zea mays) [16]; 62 g ai/ha,0
same,"Plant response rating, Corn",corn (Zea mays) [16]; 125 g ai/ha,10
same,"Plant response rating, Foxtail, Green",[17]; 16 g ai/ha,50
same,"Plant response rating, Foxtail, Green",[17]; 31 g ai/ha,70
same,"Plant response rating, Foxtail, Green",[17]; 62 g ai/ha,100
same,"Plant response rating, Foxtail, Green",[17]; 125 g ai/ha,100
same,"Plant response rating, Velvetleaf",[18]; 125 g ai/ha,30
same,"Plant response rating, Velvetleaf",[18]; 500 g ai/ha,90
